Experimental data: article PMC5626944 (Frontiers in Pharmacology, 2017)
Where two headings read alike, the source gives them in different places.

Tests used:
Adrenergic, Alpha 2B = test: NovaScreen competition binding; settings: 1 µM
α4β2 (α5KO) nAChRs = target: T1, α4β2 (α5KO) nAChRs (Mus musculus, UniProt O70174+Q9ERK7); test: 86Rb+ efflux from α5KO thalamic and cortical synaptosomes; format: biochemical
T1 construct: from tissue; host or cells: thalamic and cortical synaptosomes of α5KO mice
Method: Regions of interest were dissected from fresh mouse brains and homogenized in ice-cold isotonic sucrose (0.32 M), buffered with HEPES (5 mM, pH 7.5). The suspension was centrifuged at 12,000 × g for 20 min.

[1] = In vitro metabolism in microsomes; format: in vitro ADME; settings: rat microsomes
α6-GFPβ2DMβ3 nAChRs = target: T2, α6-GFPβ2DMβ3 nAChRs (Mus musculus, UniProt Q9ERK7+Q9R0W9, L349M/R365A/R366A/R368A); test: Whole-cell patch-clamp recordings in transfected neuro-2a cells; format: cell-based
T2 construct: expressed in transfected cells; host or cells: mouse neuroblastoma neuro-2a (ATCC CCL-131)
Method: Cells were transfected with 500 ng of: α4-GFP and β2DM or α6-GFP, β2DM, and β3 nAChR subunits.
For the patch-clamp experiments, we used mouse neuro-2a cells. […] Transfected cells displaying eGFP fluorescence were identified for patching using an inverted epifluorescence microscope. […] The resistance of the patch pipettes was 2–4 MΩ. The extracellular solution contained (in mM): 140 NaCl, 5 KCl, 2 CaCl2, 1 MgCl2, 10 HEPES, and 10 glucose (320 mOsm, pH set to 7.3 with Tris-base). […] The data were sampled at 10 kHz and low-pass filtered at 2 kHz prior to digitization. All experiments were performed at 24°C and the recording chamber was continually perfused with extracellular solution. To avoid receptor desensitization by repetitive agonist application, agonists were applied at intervals ≥3 min. An Octaflow II superfusion system (ALA Scientific Instruments) was used to apply the agonist for concentration-response studies. Applications were 500 ms at 6 psi. […] Following the collection of the full concentration range an additional test pulse was repeated to assess accumulated desensitization.
Data were fit to a single Hill term using Origin 10 software. Data are expressed as mean ± SEM.

Dopamine, D4.4 (h) = test: NovaScreen competition binding; parameters: species or system human; settings: 1 µM
Neuropeptide, NPY2 (h) = tested on: T3, Neuropeptide, NPY2 (h); test: NovaScreen competition binding; parameters: species or system human; settings: 1 µM
T3 construct: PerkinElmer – Caliper Life Sciences (NovaScreen service)

[2] = tested on: T4, Leukotriene, LTD4 (CysLT1); test: NovaScreen competition binding; settings: 1 µM
T4 construct: PerkinElmer – Caliper Life Sciences (NovaScreen service)

T1 sequence (O70174 31-629): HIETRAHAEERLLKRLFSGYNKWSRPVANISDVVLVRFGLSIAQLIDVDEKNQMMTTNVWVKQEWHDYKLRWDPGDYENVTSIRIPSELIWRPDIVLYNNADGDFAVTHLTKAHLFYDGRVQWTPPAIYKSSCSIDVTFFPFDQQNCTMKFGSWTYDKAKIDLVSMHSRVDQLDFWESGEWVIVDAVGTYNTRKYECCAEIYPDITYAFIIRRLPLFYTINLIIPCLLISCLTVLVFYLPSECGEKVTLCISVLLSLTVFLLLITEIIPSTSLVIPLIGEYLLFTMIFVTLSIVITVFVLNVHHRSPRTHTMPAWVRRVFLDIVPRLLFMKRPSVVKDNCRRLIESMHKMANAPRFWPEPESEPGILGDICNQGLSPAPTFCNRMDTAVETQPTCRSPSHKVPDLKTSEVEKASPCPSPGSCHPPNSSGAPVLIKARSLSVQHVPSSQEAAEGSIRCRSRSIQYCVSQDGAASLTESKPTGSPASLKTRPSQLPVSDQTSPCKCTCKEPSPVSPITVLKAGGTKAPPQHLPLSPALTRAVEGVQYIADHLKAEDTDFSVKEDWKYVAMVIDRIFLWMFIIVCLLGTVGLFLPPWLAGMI
T1 sequence (Q9ERK7 26-501): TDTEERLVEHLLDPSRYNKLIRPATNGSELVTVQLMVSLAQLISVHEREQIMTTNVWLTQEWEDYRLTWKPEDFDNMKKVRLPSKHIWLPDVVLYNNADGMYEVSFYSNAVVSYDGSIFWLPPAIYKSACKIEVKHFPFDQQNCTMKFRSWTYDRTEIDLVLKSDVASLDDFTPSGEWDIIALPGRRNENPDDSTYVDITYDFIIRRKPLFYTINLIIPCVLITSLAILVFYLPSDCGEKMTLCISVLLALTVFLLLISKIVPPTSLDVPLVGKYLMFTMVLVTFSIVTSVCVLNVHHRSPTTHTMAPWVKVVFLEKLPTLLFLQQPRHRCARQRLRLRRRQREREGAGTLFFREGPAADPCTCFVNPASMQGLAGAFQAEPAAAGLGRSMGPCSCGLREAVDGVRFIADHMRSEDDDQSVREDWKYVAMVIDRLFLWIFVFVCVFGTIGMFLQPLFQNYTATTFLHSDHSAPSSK
T2 sequence (Q8BMN3 31-464, stated change not applied): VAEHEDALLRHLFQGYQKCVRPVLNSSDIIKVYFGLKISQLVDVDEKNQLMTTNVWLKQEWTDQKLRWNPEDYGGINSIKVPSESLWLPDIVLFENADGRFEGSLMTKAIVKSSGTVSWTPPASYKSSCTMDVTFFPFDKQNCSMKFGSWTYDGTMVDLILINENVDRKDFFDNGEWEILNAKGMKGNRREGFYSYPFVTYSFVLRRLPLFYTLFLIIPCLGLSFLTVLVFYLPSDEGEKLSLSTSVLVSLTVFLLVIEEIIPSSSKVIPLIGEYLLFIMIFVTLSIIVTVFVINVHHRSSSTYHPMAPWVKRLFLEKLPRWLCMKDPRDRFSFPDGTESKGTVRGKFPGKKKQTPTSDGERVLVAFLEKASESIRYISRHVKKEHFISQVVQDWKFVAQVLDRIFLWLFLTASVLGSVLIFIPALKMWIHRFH
T2 sequence (Q9R0W9 31-494): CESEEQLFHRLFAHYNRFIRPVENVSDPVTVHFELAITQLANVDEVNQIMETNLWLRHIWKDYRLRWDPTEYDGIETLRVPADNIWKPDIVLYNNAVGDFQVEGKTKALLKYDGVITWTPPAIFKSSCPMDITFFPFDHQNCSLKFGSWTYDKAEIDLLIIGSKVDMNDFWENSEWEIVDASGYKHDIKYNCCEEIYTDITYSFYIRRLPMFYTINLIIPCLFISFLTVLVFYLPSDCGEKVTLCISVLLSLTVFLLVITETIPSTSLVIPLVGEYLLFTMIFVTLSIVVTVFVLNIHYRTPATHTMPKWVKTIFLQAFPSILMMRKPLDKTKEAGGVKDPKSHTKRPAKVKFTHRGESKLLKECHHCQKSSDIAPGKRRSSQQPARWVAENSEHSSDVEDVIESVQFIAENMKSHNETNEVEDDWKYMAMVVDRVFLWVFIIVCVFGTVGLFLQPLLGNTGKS
T2 sequence (Q9ERK7 26-501 L349M/R365A/R366A/R368A): as the sequence (Q9ERK7 26-501) above, with L324M, R340A, R341A, R343A counted along it

## C1=C(/c2cncnc2)CCCNCC/1 [TC299423, (E)-5-(pyrimidin-5-yl)-1,2,3,4,7,8-hexahydroazocine]
Adrenergic, Alpha 2B
  Hit: FALSE
Adrenergic, Alpha 2B; [3H]MK-912
  Inhibition: -14.09%
α4β2 (α5KO) nAChRs; Cortex
  86Rb+ efflux Efficacy: 169 ± 20%
  EC50: 2400 ± 700 nM
α4β2 (α5KO) nAChRs; Thalamus
  86Rb+ efflux Efficacy: 166 ± 32%
  EC50: 1600 ± 500 nM
[1]
  Half-life compared to varenicline: ~7 fold
  half-life: 1.32 h
[1]; read-out: Clearance
  microsomal CLint: 18 µL/min/mg
α6-GFPβ2DMβ3 nAChRs; range over patch-clamp recordings and [3H]-dopamine release assays, read-out: EC50 for α6β2* nAChRs
  EC50: 30 to 60 nM
α6-GFPβ2DMβ3 nAChRs; α6β2β3 transfected in Neuro-2a cells, read-out: Patch clamp EC50
  EC50: 40 ± 10 nM
Dopamine, D4.4 (h)
  Hit: FALSE
Dopamine, D4.4 (h); [3H]-YM-09151-2
  Inhibition: -2.44%
Neuropeptide, NPY2 (h)
  Hit: FALSE
Neuropeptide, NPY2 (h); [125I]-PYY
  Inhibition: 2.16%
[2]
  Hit: FALSE
[2]; [3H]LTD4
  Inhibition: -8.26%
